Measurements reported in US5215964A, “Peptides useful in regulating the immune and nervous systems” (Immunobiology Research Institute, Inc., priority 1991, dated 1993).
Ends that are not written are not given here. Peptide text beside a SMILES is read from it. * marks the point of attachment. Decanoyl = CCCCCCCCCC(=O)*

Tests used:
[1] = test system: γ TP receptor; assay: Neuromuscular (electromyographic) assay; assay type: in vivo; details: i.v. or s.c. in mice, electromyography 18 hours after administration
Protocol: The neuromuscular assay is performed to determine the effect, if any, of different peptides and dosages of peptides on the γ TP receptor according to the invention. This assay is carried out as follows. Various doses of a selected peptide of this invention, prepared as described in the preceding examples, are dissolved in normal saline and injected either intravenously (i.v.) or subcutaneously (s.c.) into mice (or other selected laboratory animals). The electromyographic assay is performed according to G. Goldstein et al, J. Jeurol. and Neurosurg. Physchiat., 31:453-459 (1968) 18 hours after administration of the peptide.
Mice of either sex, weighing […], are anesthetized with 150 μl of 5% sodium pentobarbital (Abbott Laboratories, Chicago, Ill.). The nerve is stimulated with a Grass S-48 stimulator and a Grass SIV-5A stimulus isolation unit (Grass Instrument Co., Quincy, Mass.) and the electromyographic response is recorded with a Tektronix storage oscilloscope-5111 coupled to a 5A21N differential amplifier and a 5B10N time base (Tektronix, Beaverton, Oreg.).
Groups of five or more mice are used for each experiment. […] The mean, standard deviation and statistical significance of differences between experimental animals and controls are assessed by one-way analysis of variance based on ratio. […]

[2] = test system: MOLT-4 T cell line; assay: Cyclic GMP assay, MOLT-4 cell line; assay type: cell-based, human; details: positive = cyclic GMP greater than 2 standard deviations above parallel negative control; peptide 1, 10, 100 μg/mL
From the text: This assay measures the ability of a peptide of this invention to bind to the cell membrane receptor of the intact MOLT-4 cell and selectively stimulate production of cyclic GMP, as does human thymopoietin.
The MOLT-4 cell line was obtained from the American Type Culture Collection of Rockville, Md. MOLT-4 cells were freshly seeded and grown for 3 days with harvesting as described in T. Audhya et al, Arch. Biochem Biophys., 234: 167-177 (1984). The cells were washed 3 times in PBS and resuspended in RPMI 1640 at a concentration of […]; cells/ml and were allowed to equilibrate at 37° C. for 30 minutes before the addition of the test pentapeptides or control peptides, in 25 μl to yield a final concentration of 1, 10, and 100 μg/mL. The incubation was allowed to proceed in a shaking water bath for 4-5 minutes and was then terminated by addition of 1 ml ice-cold TCA (10 percent in H2 O).
The cells in TCA were homogenized and sonicated to release cyclic nucleotide. The suspension was centrifuged at 3000×g for 20 minutes at 4° C. The resulting precipitate was dissolved in 0.1N NaOH to determine the protein content. […]
A threshold activity was determined for each peptide tested. […] Test results were considered positive if the level of cyclic GMP was greater than […] that determined for the parallel negative control.

[3] = test system: CEM T cell line; assay: Cyclic GMP assay, CEM cell line; assay type: cell-based, human; details: positive = cyclic GMP greater than 2 standard deviations above parallel negative control; peptide 1, 10, 100 μg/mL
[4] = Enzymatic stability, duodenum in diffusion cell; details: for intact peptide: rat duodenum, phosphate buffer pH 5.5, 1 mg/mL
Protocol: (§1) A rat duodenum was opened and attached to a 3.5 mL diffusion cell [Crownglass, N.J.] with buffer in both chambers. The selected test peptide in phosphate buffer (pH 5.5) was applied to both the cells to a final concentration of 1 mg/mL, and samples were taken at 0, 2 and 4 hours. The aliquots were subjected to high performance liquid chromatography (HPLC) with ultraviolet detection at 220 nm. The solvent system for thymopentin was phosphate buffer and methanol.

[5] = in vitro; details: rat, real gastrointestinal fluid or homogenate, pH 5.5
Protocol: as §1

CCCCCCCCCC(=O)N[C@@H](CCCNC(=N)N)C(=O)N1CCC[C@H]1C(=O)N[C@@H](CC(=O)O)C(=O)N1CCC[C@H]1C(=O)N[C@@H](Cc1ccccc1)C(N)=O [Decanoyl-Arg-Pro-Asp-Pro-Phe-NH2] (Decanoyl-RPDPF-NH2)
thymopoietin/thymopentin-like results on the neuromuscular assay (γ) [1]: γ-positive | inducing increased cGMP levels in the human MOLT-4 T cell line (β) [2]: positive | inducing increased cGMP levels in the human CEM T cell line (α) [3]: positive

RKDVY [TP-5, thymopentin]
intact peptide ([4]; 0 hours): 100% | intact peptide ([4]; 4 hours): negligible | remaining at 2 h, 1 mg/mL ([4]; rat, rat duodenum mounted in a diffusion cell, pH 5.5): 20%

Ac-RPDPF-NH2 [Acetyl-Arg-Pro-Asp-Pro-Phe-NH2]
remaining at 2 h, 1 mg/mL [5]: ~100% | remaining at 4 h, 1 mg/mL [5]: ~90%

Ac-RPTPY-NH2 [Acetyl-Arg-Pro-Thr-Pro-Tyr-NH2]
inducing increased cGMP levels in the human CEM T cell line (α) [3]: positive

Ac-RPTPF-NH2 [Acetyl-Arg-Pro-Thr-Pro-Phe-NH2]
inducing increased cGMP levels in the human CEM T cell line (α) [3]: positive
